Measured values as given in a melting point compilation (Tetko et al.; mined from patent text by program, amines drawn as free bases though some values may be those of a salt).

| SMILES | melting point |
| --- | --- |
| CC1(C)CNC(=O)c2cc3nc(-c4ccncc4)[nH]c3cc21 | 231 to 234 °C |
| COc1nc(C)nc(OC)c1N1CCCn2c1nc1c(Cl)ccc(C(O)(C3CC3)C3CC3)c12 | 204 to 205 °C |
| CC(=O)NC[C@H]1CN(c2ccc(N3CCC(n4nnc(-c5ccccc5)n4)CC3)c(F)c2)C(=O)O1 | 212 to 214 °C |
| COc1cccc2c1CC(CC(=O)O)C1(C2)OCCO1 (stereo not drawn) | 129 to 130 °C |
| FC(F)(F)c1ccn(-c2cc(N3CCOCC3)nc3ccccc23)n1 | 118 to 120 °C |
| Cc1ccc(S(=O)(=O)N2CCC[C@H]2C(=O)N2c3ccc(F)c(Cl)c3C(=O)CC2C)cc1 (stereo partly drawn) | 135 to 136 °C |
| O=C1N(c2ccc(Cl)cc2Cl)Cc2cnc(Nc3ccccc3)nc2N1c1cccc(CCN2CCNCC2)c1 | 126 °C |
| CC(C)c1ccc(N(C)C)c(C(C)C)c1NC(=O)CN1CCN(CCSc2nc3ccccc3o2)CC1 | 159 to 161 °C |
| Cc1ncn(-c2nc(-c3ccc(Cl)cc3)c(CCC(=O)O)o2)c1C | 225 to 226 °C |
| Cc1ccc(S(=O)(=O)Nc2cccc3cc(C(=O)O)[nH]c23)cc1 | 268 to 269 °C |
| COC(=O)CCc1cc(C(=O)c2cccc(C#N)c2)ccc1OCCCCC=Cc1ccc(OC)cc1 | 65 to 67 °C |
| COc1cc(OC)c2c3c(n(Cc4ccccc4)c2c1)CCCC3C(N)=O (stereo not drawn) | 190 to 192 °C |
| COc1ccncc1Nc1nc(N2CCOCC2)nc(-n2c(C(F)F)nc3c(OC)cccc32)n1 | 239 to 241 °C |
| O=c1[nH]c2cc(Cl)ccc2c(O)c1-c1ccc(Br)cc1 | > 350 °C |
| CC(C)S(=O)(=O)c1ccc2c(c1)nc(CC(C)(C)C)n2CCN(C)C | 116 °C |
| FCc1nnc2n1-c1ccc(Cl)cc1C(c1ccccc1)=NC2 | 153 to 154 °C |
| COc1cc2c(cc1OC)CN(c1nc(N)c3cc(OC)c(OC)c(OC)c3n1)CC2 | 204 °C |
| CN1CC(CCCl)c2nc3ccccc3n2C1=O (stereo not drawn) | 88 to 91 °C |
| Cc1ccccc1C(=O)Nc1nc(C(Cl)(Cl)Cl)ns1 | 170 °C |
| CCOC(=O)c1cn(C2CC2)c2c(F)c(F)c(F)c(C)c2c1=O | 176 to 177 °C |
| CC(=O)c1ccc(Nc2cccc(-c3cnc(N)nc3)c2)c([N+](=O)[O-])c1 | 233 to 236 °C |
| COC(=O)c1ccccc1CS(=O)(=O)N=c1nc2nc(OC)cc(OC)n2s1 | 153 to 154 °C |
| O=C(OCc1ccccc1)N1CCC(c2cc3ccccc3c(=O)[nH]2)CC1 | 179 to 181 °C |
| CC(C)(C)c1cc(N2C=NC(NC(=N)N)S2)cc(C(C)(C)C)c1O (stereo not drawn) | 276 °C |
| CC(C)(C)OC(=O)NCCCc1ccc2c(n1)NCCC2 | 95.2 to 96.3 °C |
| N#CCNC(=O)c1ccc([N+](=O)[O-])cc1 | 147 to 149 °C |
| CC1(CO)Cc2nnc(-c3ccc(-c4ccccc4)cc3Cl)n2CCS1 (stereo not drawn) | 166 to 169 °C |

Other lines, results leading:

| melting point | SMILES |
| --- | --- |
| 146 to 147 °C | C#CCN1CCNC1=C[N+](=O)[O-] |
| 198 to 200 °C | O=C1CC(=O)CC(c2ccc(Cl)c(Cl)c2)C1 |
| 118 to 120 °C | OCc1cccn2cc(C(F)(F)F)nc12 |
| 110 to 113 °C | CCCc1c(COc2ccc(Cc3nnn(CCCCCCc4nnn[nH]4)n3)cc2)ccc(C(C)=O)c1O |
| 73 to 75 °C | O[C@H]1c2ccc(OCc3ccccc3)cc2OC[C@H]1Oc1cccnc1 (relative stereo) |
| 128 to 129 °C | COc1ccc(C2=NN(CCO)C(=O)[C@H]3CCCC[C@@H]23)cc1OC (relative stereo) |
| 73 to 75 °C | C=C1CCC2C3CCC4CC(OCOC)CCC4(C)C3CCC12C (stereo not drawn) |
| 169 to 170 °C | OC1c2ccccc2CSc2ccc(Br)cc21 (stereo not drawn) |
| 142 to 143 °C | C[C@@H]1OC(=O)[C@@H](NC(=O)OC(C)(C)C)COC[C@H](Cc2ccccc2)[C@H]1OCCC(=O)N(C)C |
| 90 to 93 °C | c1ccc(CN2C(=NCCCn3ccnc3)c3cccc4cccc2c34)cc1 |
| 139 to 140 °C | CC(=O)OC1(Cc2ccncc2)C(=O)N(N2CCCCC2)c2ccccc21 (stereo not drawn) |
